Measurements published in patent US10683483B2, “Microfabricated platform for mimicking the liver zonation and evaluating method of zonal toxicity using thereof” (Korea Research Institute of Chemical Technology, priority 2019, dated 2020).

How the values were obtained:
HepaRG cells [1] = experiment: Hepatotoxicity evaluation by dead cell staining (EthD-1) in the microfabricated platform for mimicking the liver zonation; format: cell-based; conditions: 10 mM acetaminophen, 48 hours
Method: First, an impermeable fluorescent substance was formed in the inside of HepaRG cells by using cell tracker deep red fluorescent solution in order to trace the location of HepaRG cells. A microfabricated platform for mimicking the liver zonation was prepared by the same conditions and same manners as described in Example 1 by using the prepared HepaRG cells. […] As a control, a culture medium without acetaminophen was used. Upon completion of the culture, the medium was removed and the dead cells were stained with EthD-1 (ethidium homodimer-1).

HepaRG cells [2] = experiment: Hepatotoxicity evaluation by cell viability (cell counting kit-8) of pieces of the microfabricated platform for mimicking the liver zonation; format: cell-based; conditions: 48 hours; acetaminophen 12.5-200 mM, tamoxifen 31.2-500 μM; pieces along CHIR gradient
Method: The 96-well plate was cultured at 37° C. for 48 hours. Upon completion of the reaction, cells were washed with PBS and the absorbance of the cells was measured using cell counting kit-8 (Dojindo Molecular Technologies) according to the manufacturer's protocol.

liver tissue = experiment: Hepatotoxicity in liver tissue of a rat model (H&E staining); format: in vivo, Sprague Dawley rats; conditions: oral, once a day for 3 days; acetaminophen 1,000 mg/kg, tamoxifen 60 mg/kg
Source text: After the administration, the animals were sacrificed, from which the liver tissues were obtained. The obtained liver tissues were stained with H&E, followed by observation under a microscope.

Q: For `CC(=O)Nc1ccc(O)cc1` [acetaminophen], which “EthD-1 staining of dead cells (fluorescence intensity) by zone” value (HepaRG cells [1]) is on record?
A: The value was “high fluorescence intensity in those hepatocytes exposed to a relatively high concentration of CHIR”.

Q: What about the “zone-specific sensitivity of cell viability to drug induced toxicity” value (HepaRG cells [2]) of the same compound?
A: The value was “more sensitive to the acetaminophen induced toxicity”.

Q: What about the “liver histopathology by zone (H&E)” value (liver tissue) of the same compound?
A: The value was “increased mitosis (yellow triangle), necrosis (blue triangle) and inflammatory cell infiltration (green triangle) in the central vein of the liver (zone 3)”.
